Reference: EP4650002A1 (Ludwig-Maximilians-Universität, priority 2024, dated 2025)

Molecular target: T1, human TLX (Homo sapiens, UniProt Q9Y466)
T1 construct: expressed in transfected cells; host or cells: HEK293T
Assay: Gal4 hybrid reporter gene assay (TLX modulation)
Format: cell-based
Parameters: key to relative reporter activity: fraction of DMSO control (DMSO = 1)
Conditions: for relative reporter activity: DMSO control = 1; for EC50: Gal4-TLX hybrid reporter in HEK293T cells, 16 h incubation
Protocol: In the Tables, the TLX relative reporter activity is expressed as EC50 (in µM) for each listed compound. "EC50" refers to a measure of the concentration of a compound which induces a biological response halfway between the baseline and maximum after a specified exposure time. […] The EC50 is measured via a hybrid reporter gene assay, employing the transfection of a reporter (firefly luciferase with Gal4 response element), a control gene (Renilla luciferase), a transcriptional activator (Gal4-VP16) and a hybrid receptor consisting of the TLX ligand binding domain (LBD) and the Gal4 DNA binding domain (DBD).
Hybrid reporter gene assays. […] After 24 h, medium was changed to Opti-MEM without supplements and cells were transiently transfected using Lipofectamine LTX reagent (Invitrogen, Carlsbad, CA, USA) according to the manufacturer's protocol. Five hours after transfection, cells were incubated with the test compounds in Opti-MEM supplemented with penicillin (100 U/mL), streptomycin (100 µg/mL) and 0.1% DMSO for 16 h before luciferase activity was measured using the Dual-Glo Luciferase Assay System (Promega) according to the manufacturer's protocol on a Tecan Spark luminometer (Tecan Deutschland GmbH, Crailsheim, Germany). Firefly luminescence was divided by Renilla luminescence and multiplied by 1000 resulting in relative light units (RLU) to normalize for transfection efficiency and cell growth. Fold activation was obtained by dividing the mean RLU of test compound by the mean RLU of the untreated control. All samples were tested in at least three biologically independent experiments in duplicates. For dose-response curve fitting and calculation of EC50 values, the equation "[Agonist] vs. response -- Variable slope (four parameters)" was used in GraphPad Prism (version 7.00, GraphPad Software, La Jolla, CA, USA).

[1] = minimal remaining or maximum reporter activity after treatment, in brackets below the EC50, <1 agonism, >1 inverse agonism

T1 sequence (Q9Y466 155-383 limits assumed): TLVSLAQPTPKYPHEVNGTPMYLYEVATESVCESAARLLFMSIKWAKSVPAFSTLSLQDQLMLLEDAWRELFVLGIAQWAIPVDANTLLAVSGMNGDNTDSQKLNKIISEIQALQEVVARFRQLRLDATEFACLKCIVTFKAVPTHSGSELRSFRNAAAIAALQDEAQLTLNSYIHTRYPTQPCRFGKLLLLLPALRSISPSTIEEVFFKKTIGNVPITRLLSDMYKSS

| Structure (SMILES) | EC50 [µM] | further results |
| --- | --- | --- |
| CN(C)c1ccc(-c2cc(N)cc(C(F)(F)F)c2)cc1 [compound 95, N4',N4'-dimethyl-5-(trifluoromethyl)-[1,1'-biphenyl]-3,4'-diamine] | – | relative reporter activity (at 20 µM): (0.41±0.11 at 20 µM) |
| Nc1cc(-c2ccc3c(c2)CCN3)cc(C(F)(F)F)c1 [compound 96, 3-(indolin-5-yl)-5-(trifluoromethyl)aniline] | 2.3 ± 0.7 | – |
| Cn1ncc2cc(-c3cc(N)cc(C(F)(F)F)c3)ccc21 [compound 97, 3-(1-methyl-1H-indazol-5-yl)-5-(trifluoromethyl)aniline] | 1.6 ± 0.9 | – |
| Cn1ccc2cc(-c3cc(N)cc(C(F)(F)F)c3)cnc21 [compound 98, 3-(1-methyl-1H-pyrrolo[2,3-b]pyridin-5-yl)-5-(trifluoromethyl)aniline] | 0.4 ± 0.07 | relative reporter activity [1]: 0.29±0.03 |
| Nc1cc(-c2cccc3[nH]ccc23)cc(C(F)(F)F)c1 [compound 99, 3-(1H-Indol-4-yl)-5-(trifluoromethyl)aniline] | 3 ± 0.2 | – |
| Cn1ccc2c(-c3cc(N)cc(C(F)(F)F)c3)cccc21 [compound 100, 3-(1-Methyl-1H-indol-4-yl)-5-(trifluoromethyl)aniline] | 18 ± 1 | relative reporter activity (at 10 µM): 0.55±0.06 |
| Cc1cn(-c2cccc(N)c2)cn1 [compound 101, 3-(4-methyl-1H-imidazol-1-yl)aniline] | – | relative reporter activity (at 30 µM): inactive at 30 µM |
| Cc1cn(-c2cccc(NC(=O)Cc3ccccc3Cl)c2)cn1 [compound 103, 2-(2-chlorophenyl)-N-(3-(4-methyl-1H-imidazol-1-yl)phenyl)acetamide] | 1.9 ± 0.5 | relative reporter activity [1]: 0.18±0.10 |
| Cc1cc(-c2cccc(N)c2)ccn1 [compound 104, 3-(2-methylpyridin-4-yl)aniline] | – | relative reporter activity (at 50 µM): (0.73±0.06 at 50 µM) |
| Cn1cc(-c2cccc(N)c2)cn1 [compound 105, 3-(1-methyl-1H-pyrazol-4-yl)aniline] | – | relative reporter activity (at 30 µM): inactive at 30 µM |
| Cc1cc(N)cc(-c2ccnc(C)c2)c1 [compound 106, 3-methyl-5-(2-methylpyridin-4-yl)aniline] | – | relative reporter activity (at 30 µM): (0.44±0.09 at 30 µM) |
| Cc1cc(-c2cc(N)ccc2C(F)(F)F)ccn1 [compound 107, 3-(2-methylpyridin-4-yl)-4-(trifluoromethyl)aniline] | – | relative reporter activity (at 50 µM): (0.39±0.04 at 50 µM) |
| COc1cc(N)cc(-c2ccnc(C)c2)c1 [compound 108, 3-methoxy-5-(2-methylpyridin-4-yl)aniline] | 15 ± 4 | – |
| Cc1cc(-c2cc(N)cc(C#N)c2)ccn1 [compound 109, 3-amino-5-(2-methylpyridin-4-yl)benzonitrile] | 5.9 ± 2.2 | relative reporter activity [1]: 0.40±0.11 |
| Cc1cc(-c2cc(N)ccc2OC(F)(F)F)ccn1 [compound 110, 3-(2-methylpyridin-4-yl)-4-(trifluoromethoxy)aniline] | 16 ± 10 | relative reporter activity [1]: 0.34±0.09 |
| Cc1cc(-c2cc(N)cc(Cl)c2)ccn1 [compound 111, 3-chloro-5-(2-methylpyridin-4-yl)aniline] | 10 ± 7 | – |
| CC(=O)c1ccc(-c2ccnc(C)c2)cc1N [compound 112, 1-(2-amino-4-(2-methylpyridin-4-yl)phenyl)ethan-1-one] | 18 ± 10 | relative reporter activity [1]: 0.58±0.09 |
| Cc1cc(-c2cc(N)cc(OC(F)(F)F)c2)ccn1 [compound 113, 3-(2-methylpyridin-4-yl)-5-(trifluoromethoxy)aniline] | 13.6 ± 0.6 | – |
| Cc1cc(-c2cc(N)cc(Cl)c2Cl)ccn1 [compound 114, 3,4-dichloro-5-(2-methylpyridin-4-yl)aniline] | 9.6 ± 0.7 | – |
| Cc1cc(-c2cc(N)cc3[nH]ccc23)ccn1 [compound 115, 4-(2-methylpyridin-4-yl)-1H-indol-6-amine] | 3.8 ± 0.7 | – |
| Cc1cc(-c2cc(N)c3cc[nH]c3c2)ccn1 [compound 116, 6-(2-methylpyridin-4-yl)-1H-indol-4-amine] | – | relative reporter activity (at 50 µM): inactive at 50 µM |
| Cc1cc(-c2cc(N)c3cn[nH]c3c2)ccn1 [compound 117] | 7.9 ± 1.5 | relative reporter activity [1]: 0.31±0.03 |
